One data set deals with dhBMECs. The data set is described as follows: Cytotoxicity assay (EthD1/Hoechst live-cell imaging), dhBMECs. It counts as cell-based, human. Conditions: for exposure time maintaining high cell viability: phase diagrams of dhBMECs and HCNs, 98% viability. The method, then:
DhBMECs were seeded on polystyrene 96-well plate, coated with 25 μg mL^−1 fibronectin and 50 μg mL^−1 collagen IV, at 2×10^5 cells cm^−2 in BBB induction medium. On day 1, the cells were washed twice with BBB maintenance medium with gentle pipetting up-and-down to remove non-adherent cells and incubated in the medium overnight. HCN2 cells were seeded in the tissue culture-treated 96-well plate at 3×10^3 cell cm^−2 in HCN2 cell culture medium and cultured for two days at 37° C., 5% CO2, with the medium change on day 1 after the seeding. The cytotoxicity assay was performed on day 2 after seeding. Briefly, in the cytotoxicity assay, the cells were incubated with two dyes: a membrane-impermeable Ethidium homodimer-1 (EthD1, L3224, Thermo Fisher Scientific) to assess cell viability, and Hoechst 33342 nuclear stain (Cat. No. 62249, Thermo Fisher Scientific) and imaged on an epifluorescence microscope. In more detail, the cells were washed with BBB maintenance medium followed by incubation with 200 μL of 2 μg mL^−1 Hoechst 33342 and 10 μM EthD1 solution for 15-30 minutes at 37° C., 5% CO2. After the incubation, 100 μL of the solutions were replaced with Hoechst 33342 and EthD1 solutions containing melittin using a multichannel pipettor, resulting in final 0.75 μM, 5 μM, and 10 μM melittin concentrations. After the addition of treatment solutions, large 6×6 epifluorescence images were collected every ˜3.5 minutes per condition using a 20×objective and a Nikon Eclipse TiE microscope, equipped with 37° C. chamber, for 60-90 minutes. Out-of-focus portions of images were manually blacked out using ImageJ. Afterwards, the images were analyzed using a custom pipeline in image analysis software CellProfiler 3.1.8 to count Hoechst-positive objects (all cells) and EhtD1-positive objects (dead cells). The fraction of viable cells (F) was calculated using equation 2 below:
where N(EthD1)i is the number of EthD1-positive objects at time i, N(EthD1)o is the number of EthD1-positive objects at time t=2 minutes (initial time of imaging), N(Hoechst)max is the maximum number of Hoechst-positive objects counted in an image over the imaging time-course. For dhBMECs, the experiments were repeated a total of five times with two independent iPSC differentiations. In the experiment, all media removal was done by gentle pipetting and not aspiration by vacuum. For HCN2 cells, the experiments were performed a total of three times on day 2 and day 3 after seeding.

The subject of data set [1] is human cortical neurons (HCNs, HCN-2 cells).
The subject of data set [2] is mouse brain (blood-brain barrier). An excerpt: Briefly, male C57BL/6J mice (n=43, 6-8 weeks old, 20-25 g, Jackson Laboratory) were anesthetized with 2% isoflurane. The common carotid artery (CCA) bifurcation was exposed and the occipital artery branching off from the external carotid artery (ECA) was coagulated. The ECA and the pterygopalatine artery (PPA) were temporarily ligated with 4-0 silk sutures. A temporary ligature using a 4-0 suture was placed on the carotid bifurcation and the proximal CCA was permanently ligated. A microcatheter (PE-8-100, SAI Infusion Technologies) was flushed with 2% heparin (1,000 U mL^−1, heparin sodium, Upjohn), inserted into the CCA via a small arteriotomy, and advanced into the internal carotid artery (ICA).
For each animal, 150 μL of solution was infused at a rate of 150 μL minute^−1. […] The brains were harvested immediately after Evans Blue injection, sectioned in brain slicer matrix (Zivic Instruments) to produce 1 mm slabs.
Animal anesthesia was maintained at 1.5-2% during the MRI scan. Mice were placed on a water-heated animal bed equipped with temperature and respiratory control. Respiration was monitored and maintained at 30-60 minutes^−1. All MRI experiments were performed on a Bruker 11.7T MRI scanner. Baseline T2 (TR/TE=2,500/30 ms), susceptibility-weighted imaging (SWI) (TR/TE=378/8 ms), T1 (TR/TE 350/6.7 ms)-weighted, dynamic gradient echo echo-planar imaging (GE-EPI, TR/TE 1250/9.7 ms, field of view (FOV)=14×14 mm, matrix=128×128, acquisition time=60 s and 24 repetitions) and dynamic T1 imaging (TR/TE 2000/3. 5ms, field of view=14×14 mm, acquisition time=8 seconds and 20 repetitions) images of the brain were acquired. The microcatheter was connected to a syringe mounted on an MRI compatible programmable syringe pump (PHD 2000, Harvard Apparatus Inc.). Gadolinium (Gd; Prohance) dissolved in saline at 1:50 was infused intra-arterially at the rate of 150 μL minute^−1 under dynamic GE-EPI MRI for visualization of perfusion territory. […] To quantify BBB status, T1 intensities in cortex, hippocampus and thalamus/hypothalamus were compared between ipsilateral and contralateral hemispheres. T1 hyperintensity was corrected for possible asymmetry using pre-contrast T1 images and normalized as the ratio of ipsilateral to contralateral intensity. Additionally, the area of BBBO (mm^2) was calculated by conversion of T1 images to binary using the Auto Threshold function (plugin v1.17; Maximum Entropy method) [Kapur, J. N., P. K. Sahoo, and A. K. C. Wong, Computer Vision, Graphics, and Image Processing, 1985, 29(3): p. 273-285] in ImageJ. T2-weighted and SWI images were acquired at the same timepoints for detection of brain damage and microhemorrhage. Subsequently, animals were sacrificed for further histological assessment.
To determine the area and region of perfusion territory, we first calculated the contrast enhancement maps at the time where contrast enhancement was at its maximum. As Gd causes negative contrast under T2 imaging, we calculated the contrast enhancement as (SIpre-SIpost)/SIpre, where SI is the signal intensity of an MR image. Histogram was plotted for all pixels in the brain region in a contrast enhancement map and further fitted into two Gaussian distributions, assuming there were two dominant populations for non-contrast enhanced and contrast-enhanced pixels, respectively. The cutoff value to separate the two populations was then determined. The fraction of contrast enhanced areas was calculated by the ratio of the number of pixels, whose values are larger than the cutoff value, to the total number of pixels in the brain. A similar method was used to determine the BBBO territory.

Setting [3] is: 5 μM melittin, continuous exposure.

Read-outs that look alike come from different tables or passages of the source.

On to `CC[C@H](C)[C@H](NC(=O)CN)C(=O)NCC(=O)N[C@@H](C)C(=O)N[C@H](C(=O)N[C@@H](CC(C)C)C(=O)N[C@@H](CCCCN)C(=O)N[C@H](C(=O)N[C@@H](CC(C)C)C(=O)N[C@H](C(=O)N[C@H](C(=O)NCC(=O)N[C@@H](CC(C)C)C(=O)N1CCC[C@H]1C(=O)N[C@@H](C)C(=O)N[C@@H](CC(C)C)C(=O)N[C@H](C(=O)N[C@@H](CO)C(=O)N[C@@H](Cc1c[nH]c2ccccc12)C(=O)N[C@H](C(=O)N[C@@H](CCCCN)C(=O)N[C@@H](CCCNC(=N)N)C(=O)N[C@@H](CCCCN)C(=O)N[C@@H](CCCNC(=N)N)C(=O)N[C@@H](CCC(N)=O)C(=O)N[C@@H](CCC(N)=O)C(N)=O)[C@@H](C)CC)[C@@H](C)CC)[C@@H](C)O)[C@@H](C)O)C(C)C)C(C)C` [melittin], for which the “exposure time maintaining high cell viability” value in the data set on dhBMECs (0.75 μM melittin) is given as not below 20 min; in the data set with dhBMECs (10 μM melittin), not above 10 min. The “time for which viability is largely unaffected” value (in the data set on dhBMECs (5 μM melittin); in data set [1] (5 μM melittin)) was “about 20 minutes” each time. Besides, the “time at which the viability reached 50% (τ1/2)” value in the data set with dhBMECs (setting [3]) was approximately 40 min; in data set [1] (setting [3]), approximately 30 min. Moreover, the decrease of viability (with dhBMECs (dose of 100 μM·minute); in data set [1] (dose of 100 μM·minute)) was less than 2% throughout. Besides, the “time high viability (≥98%) is maintained” value in data set [1] (0.75 μM melittin) is approximately 23 min; in data set [1] (5 μM melittin), approximately 12 min; in data set [1] (10 μM melittin) it was approximately 12 min. Besides, the “Evans Blue leakage” value is listed as “No leakage of Evans Blue” in data set [2] (1 μM·minute); “reproducible leakage of Evans Blue” in data set [2] (3 μM·minute, ipsilateral hemisphere); “Widespread leakage of Evans Blue” in data set [2] (5 μM·minute). Also, the “dose relative to solubility limit (fold below)” value in data set [2] (3 μM·min melittin) was approximately 120 fold. For the same molecule, the “Evans Blue extravasation” value in data set [2] (3 μM·minute, 24 hours) is recorded as “no Evans Blue extravasation”. Besides, the “leakage of Gd (T1 MRI)” value in data set [2] (3 μM·minute, 24 hours) is on record as “marginal leakage”. The T1 hyperintensity entry in data set [2] (3 μM·minute, cortex) is reported as “much lower”. In addition, the “BBB status (Gd-enhanced MRI and Evans Blue)” value in data set [2] (3 μM·minute, day 7) was “full recovery of the BBB”. For the same molecule, in data set [2] (3 μM·minute, hippocampus and thalamus/hypothalamus, following dosing), the “T1 intensity, ipsilateral vs contralateral” value was “significant increase”. The “brain territory opened (area of BBBO, T1 thresholding)” value in data set [2] (3 μM·minute, within the hippocampus, immediately after dosing) is reported as 5.70±1.73 mm^2. The “reduction of BBBO area” value in data set [2] (at 24 hours and 7 days) is approximately 20 fold. Moreover, the “minimum effective dose for BBBO” value in data set [2] (intra-arterial (internal carotid artery), 1 minute) was 3 µM·min. In data set [2] (mouse, in vivo), the “difference in dose required for BBBO, human microvessels (20 μM·minute) vs mouse brain (3 μM·minute)” value was “approximately 7 fold”.

The values above are taken from US20240009269A1 (priority 2020, published 2024).
